Assay [1] relates to mouse dorsal root ganglion cells. As to the kind of experiment: Pharmacological Test 2: neurite outgrowth in primary culture of mouse dorsal root ganglion cells. Format: cell-based, mouse (C57BL/6). Also on record: key: +: positive; ±: false positive; -: negative. The following applies: 7 days culture. As to the method: (The measurement of neurite outgrowth in primary culture of mouse dorsal root ganglion cells)
Preparation of cells was conducted according to a method of Horie et al. [H. Horie., FEBS, 296, 23 (1990)]. That is, C57BL/6 male mice aged 10 to 15 weeks were used. They were bleeded to death under ether anesthetization and the backbone from cervical vertebra to sacral vertebra was removed. The capsule of dorsal root ganglion of which ventral root and dorsal root had been cut was stripped in a Ham F12 medium (Flow laboratories) and then ganglia were treated with 0.25% collagenase (Worthington Biochemical Corporation) at 37° C. for 90 minutes. The medium was replaced by a Hank's physiological buffer solution containing no calcium and magnesium and cells were treated with 0.25% trypsin (Flow Laboratories) at room temperature for 20 minutes. A trypsin inhibitor (Sigma, 100 μg/ml) was added to terminate the enzyme reaction and trituration was conducted 20 times using a tapered Pasteur pipette. The medium was replaced again by the Ham F12 medium and cells were put through a nylon mesh (150 μm) to remove a cell mass which had not been separated. Cells were suspended in the Ham F12 medium containing a N1 additive [Bottenstein, J. E., Exp. Cell. Res., 125, 183 (1980)] (kanamycin of 60 μg/ml added).
A poly-1-lysine-coating cell disc as a culture medium which had been subjected to 10 μg/ml laminin (Koken Cell Gen) coating treatment at 37° C. for 3 hours was placed on a 24 well dish and nerve cells (5000 to 10000 cells/dish) were seeded. The test compound (concentration: 0.01 mol/l) was dissolved in dimethyl sulfoxide and diluted with a phosphate buffer solution to adjust to a final concentration, and then added to a culture solution. Cells were cultured in 5% CO2 -95% air phase at 37° C. for 7 days.
For the measurement of neurite outgrowth, the cell disc was washed with a phosphate buffer solution 7 days after initiation of the culture and immobilized with 4% paraformaldehyde at 4° C. for 24 hours, and then immune staining was conducted with Vecstatin ABC kit (Vector) using a neurofilament antibody (200 kD, manufactured by Boehringer Mannheim GmbH). The periphery of the cell disc was restrictively observed under microscopy, and the amount of neurofilament (whole length per well) was evaluated by comparing with the control well according to the following criteria: positive (+), false positive (±) and negative (-).

In assay [2] the test system is Nerve cells of the cerebral cortex. As to the kind of experiment: Pharmacological test 1: neurite sprouting (NS) of cultured fetal rat cerebral cortex nerve cells, phase contrast microscopy versus control. Format: cell-based. Also on record: key: ++: extremely strong in comparison with the control; +: strong in comparison with the control; ±: same as the control; -: inferior to the control. The following applies: 10 days after initiation of culture. The source says: Nerve cells of the cerebral cortex were removed aseptically from a fetal rat (17 days-old) and cultured according to a Asou's method [Asou, H. Brain Res., 332; pages 355-357 (1985)]. After the meninx, blood vessel, etc. were removed from the cerebral hemisphere, they were put through a stainless steel mesh (pore size: 140μm). Then, the isolated cells were floated on a culture medium (Eagle's basal medium containing 10% fetal bovine serum and glucose of 1 g/l) and 1.5×10^6 cells were respectively seeded on a dish (diameter: 35 mm) coated with poly-L-lysine to initiate the culture (37° C., 3% CO2). After 24 hours, the culture medium was replaced by a culture medium containing a test compound and cultured for additional 9 days.
10 Days after initiation of the culture, neurite sprouting (NS) was evaluated under phase contrast microscopy by comparing with the control group.

The test system of assay [3] is hyperoxidation reaction of lipid (microsome fraction). As to the kind of experiment: Pharmacological test 3: antioxidation action, hyperoxidation reaction of lipid due to ascorbic acid induction in liver microsome fraction (TBA value). Format: biochemical, Wister rat. The following applies: 37° C., 15 minutes; 200 μM ascorbic acid, 20 μM ferrous sulfate; read-out: IC50 (antioxidation, 50% inhibition concentration). As to the method:
(The measurement of antioxidation action)
The antioxidation action was measured using the hyperoxidation reaction of lipid due to ascorbic acid induction [Shimada, O. and Yasuda, H. BBA489, 163-172 (1977)].
Microsome fraction was obtained from a lever of Wister rat by a Kato's method [J. Biochem., 59, 574 (1966)]. This fraction was added to a 60 mM potassium phosphate buffer solution (containing 45 mM potassium chloride, 200 μM ascorbic acid and 20 μM ferrous sulfate) in an amount of 1 mg/ml and the test compound (0.1% dimethyl sulfoxide) was added, and the mixture was incubated at 37° C. for 15 minutes. The same amount of 10% trichloroacetic acid was added and the resultant was centrifuged. A portion of the supernatant was collected and the amount of malondialdehyde due to thiobarbituric acid (TBA value) was measured [Klaassen, C. D. and Plaa, G. L. Biochem. Pharmacol., 18: 2019 (1969)]. The inhibition ratio was calculated by the following formula:
Inhibition ratio={1-(TBA value of specimen)/(TBA value of […]

Another assay has as its target T1, C-GMP-PDE (type V) (Homo sapiens, UniProt O76074).
T1 construct: from tissue; host or cells: human blood platelets (healthy adult), DEAE-cellulose fraction FI
As to the kind of experiment: Pharmacological test 4: C-GMP-PDE (type V) inhibition action. The class given is biochemical. The following applies: FI fraction from human blood platelet. As to the method: (C-GMP-PDE (type V) inhibition action)
The separation and purification of PDE from a human blood platelet was conducted according to a method of Hidaka et al. [Hidaka, H. and Asano, I., Biochem. Biophys. Acta 429, 485-497 (1976)]. That is, a blood platelet derived from a healthy adult was washed with water, floated with a Tris buffer solution and centrifuged. Then, the supernatant thereof was applied to DEAE-cellulose and separated into three fractions, FI, FII and FIII due to concentration gradient of sodium acetate. By using FI having high affinity to C-GMP, the inhibition action of the test compound was examined. The influence of the drug on PDE was represented by the inhibition ratio to PDE activity in the absence of the drug.

As to `C=CCc1ccc2c(c1O)-c1ccc(O)c(CC=C)c1C2=O` [Example 27, 1,6-Diallyl-2,5-dihydroxyfluorenone], the Neurite outgrowth action result in assay [1] (Dose 10^-7 (mole)) is on record as “+”. The “neurite sprouting (NS)” value in assay [2] (Dose 10^-5 (mole)) is recorded as “+”. The IC50 came to 1600 nM in assay [3] and 8.7 µM on C-GMP-PDE (type V).
As for `C=CCc1c(O)c(O)c(CC=C)c2c1C(=O)c1ccccc1-2` [Example 21, 1,4-diallyl-2,3-dihydroxyfluorenone], the Neurite outgrowth action entry in assay [1] (Dose 10^-7 (mole)) is on record as “+”. In addition, the “neurite sprouting (NS)” value in assay [2] (Dose 10^-7 (mole)) was “++”. Moreover, the IC50 was determined as 100 nM in assay [3] and 14.7 µM on C-GMP-PDE (type V).
Turning to `C=CCc1cc(C)c2c(c1O)C(=O)c1ccccc1-2` [Example 11], the “neurite sprouting (NS)” value in assay [2] (Dose 10^-5 (mole)) is “+”.
Take `C=CCc1cc2c(cc1O)C(=O)c1cccc(O)c1-2` [Example 35]: the “neurite sprouting (NS)” value in assay [2] (Dose 10^-7 (mole)) is “+”.
For the compound `C=CCc1cc2c(c(CC=C)c1O)-c1ccccc1C2=O` [Example 60], the Neurite outgrowth action result in assay [1] (Dose 10^-6 (mole)) was “+”. In assay [2] (Dose 10^-7 (mole)), the “neurite sprouting (NS)” value is on record as “+”.
On to `C=CCc1cc2c(cc1O)C(=O)c1cc(O)c(CC=C)cc1-2` [Example 49], for which the Neurite outgrowth action entry in assay [1] (Dose 10^-7 (mole)) is “+”. Also, the “neurite sprouting (NS)” value in assay [2] (Dose 10^-6 (mole)) is “+”. In addition, the results for the IC50 (in assay [3]; at C-GMP-PDE (type V)) were 2100 nM and 2.2 µM, respectively.
`C=CCc1c(O)ccc2c1C(=O)c1ccccc1-2` [Example 17]: the Neurite outgrowth action result in assay [1] (Dose 10^-6 (mole)) is “+”. The “neurite sprouting (NS)” value in assay [2] (Dose 10^-5 (mole)) is “++”.
Take `C=CCc1cc2c(c(CC=C)c1O)C(=O)c1c(O)c(CC=C)cc(CC=C)c1-2` [Example 16]: in assay [2] (Dose 10^-7 (mole)), the “neurite sprouting (NS)” value is given as “+”.
For `C=CCc1cc2c(cc1O)C(=O)c1c-2ccc(CC=C)c1O` [Example 14], the “neurite sprouting (NS)” value in assay [2] (Dose 10^-7 (mole)) is “++”.
With `C=CCc1cc2c(c(CC=C)c1O)C(=O)c1c(CC=C)cc(CC=C)c(O)c1-2` [Example 31], the Neurite outgrowth action entry in assay [1] (Dose 10^-7 (mole)) is “+”. Moreover, the “neurite sprouting (NS)” value in assay [2] (Dose 10^-7 (mole)) was “+”. For the same compound, the IC50 in assay [3] came to 200 nM; on C-GMP-PDE (type V), 0.4 µM.
In the case of `C=CCc1ccc(O)c2c1C(=O)c1ccccc1-2` [Example 61], in assay [2] (Dose 10^-5 (mole)), the “neurite sprouting (NS)” value was “++”.
`C=CCc1cc2c(cc1O)C(=O)c1c-2ccc(O)c1CC=C` [Example 47, 1,6-Diallyl-2,7-dihydroxyfluorenone]: in assay [1] (Dose 10^-7 (mole)), the Neurite outgrowth action result is “+”. Besides, the “neurite sprouting (NS)” value in assay [2] (Dose 10^-6 (mole)) is “+”. Moreover, the results for the IC50 (in assay [3]; at C-GMP-PDE (type V)) were 200 nM and 3.4 µM, respectively.
Turning to `C=CCc1cc2c(c(CC=C)c1O)C(=O)c1ccccc1-2` [Example 19], the Neurite outgrowth action result in assay [1] (Dose 10^-7 (mole)) is given as “+”. The “neurite sprouting (NS)” value in assay [2] (Dose 10^-5 (mole)) is recorded as “++”.
For `O=C1c2cc(O)ccc2-c2cc(O)ccc21` [Example 40], in assay [1] (Dose 10^-6 (mole)), the Neurite outgrowth action entry is “+”. In addition, the “neurite sprouting (NS)” value in assay [2] (Dose 10^-5 (mole)) is given as “++”.
Regarding `C=CCc1cc2c(c(CC=C)c1O)C(=O)c1cc(CC=C)c(O)c(CC=C)c1-2` [Example 45], the Neurite outgrowth action entry in assay [1] (Dose 10^-7 (mole)) is on record as “+”. Besides, in assay [2] (Dose 10^-7 (mole)), the “neurite sprouting (NS)” value is recorded as “+”.
In the case of `C=CCc1ccc(O)c2c1C(=O)c1c-2ccc(O)c1CC=C` [Example 28], the “neurite sprouting (NS)” value in assay [2] (Dose 10^-5 (mole)) is listed as “++”.
For `C=CCc1ccc2c(c1O)-c1ccccc1C2=O` [Example 62], the Neurite outgrowth action entry in assay [1] (Dose 10^-6 (mole)) is “+”. In assay [2] (Dose 10^-6 (mole)), the “neurite sprouting (NS)” value is “++”.
As to `C=CCc1cc2c(cc1O)C(=O)c1ccccc1-2` [Example 18], the Neurite outgrowth action entry in assay [1] (Dose 10^-6 (mole)) was “+”. Also, the “neurite sprouting (NS)” value in assay [2] (Dose 10^-5 (mole)) is “++”.
For `C=CCc1c(O)ccc2c1C(=O)c1c-2ccc(O)c1CC=C` [Example 48], the Neurite outgrowth action result in assay [1] (Dose 10^-7 (mole)) was “+”. Further, in assay [2] (Dose 10^-6 (mole)), the “neurite sprouting (NS)” value is given as “+”.
`O=C1c2cc(O)ccc2-c2c(O)cccc21` [Example 26]: the Neurite outgrowth action result in assay [1] (Dose 10^-7 (mole)) is listed as “+”. In assay [2] (Dose 10^-7 (mole)), the “neurite sprouting (NS)” value was “+”.

The record behind these values is patent US5942641A, “Fluorenone derivatives, process for preparing the same and central or peripheral nerve degeneration repair and protective agent” (Otsuka Pharmaceutical Co., Ltd., priority 1993, dated 1999).
